Source: patent US6440387B1, “Methods for determining risk of Alzheimer's disease” (Children's Medical Center Corporation, priority 1998, dated 2002)

Key:
Aβ levels in the brain = test: Dietary cholesterol and Aβ levels in rat cerebral cortex; type: in vivo; conditions: 20 month old rats, high cholesterol diet (5% cholesterol) vs low cholesterol diet (0.1% cholesterol), 10 weeks
Procedure: These experiments were performed on 20 month old rats. The rats were fed a low cholesterol diet (0.1% cholesterol) or a high cholesterol diet (5% cholesterol). After 10 weeks, the animals were sacrificed and the cortex was removed for measurement of Aβ levels. Aβ was assayed by immunoprecipitating cortical homogenates with the Aβ antibody B12, followed by Western blotting with the commercially available Aβ monoclonal antibody 4G8.

[1] = tested on: Aβ production by human cortical neurons; test: Effect of HMG CoA reductase inhibitors on Aβ levels in human cortical neuronal cultures; type: cell-based; conditions: 100 μM, 48 hours
Procedure: Busciglio et al., (1993) Proc. Nat. Acad. Sci. 90, 2092-2096, described the production of Aβ by human cortical neurons in culture . To determine whether cholesterol can affect the production of Aβ, primary human brain cultures were established from the cortex of 16-20 week fetal abortuses, and the neurons incubated in the absence or presence of very low density lipoprotein (VLDL), low density lipoprotein (LDL) or high density lipoprotein (HDL) particles isolated from human plasma. These lipoprotein particles are the physiological vehicles for the transport of cholesterol to cells. The effects of the different lipoprotein particles on the levels of Aβ in the human cortical cultures was determined. The human cortical cultures were maintained in serum-free Dulbecco's Modified Eagle's Medium (DMEM) with N2 supplements (a serum-free supplement that supports neuronal viability). The medium was then changed to the same medium (controls) or medium supplemented with VLDL, LDL, or HDL particles. After incubation for 48-72 hours, Aβ was measured by immunoprecipitation of the culture medium with a polyclonal antibody to Aβ (B12), followed by Western blotting with a mohoclonal antibody to Aβ (6E10). […] The bands corresponding to the 40 and 42 amino acid form of Aβ were analyzed quantitatively using a computer software program. […]

Structure (SMILES): CC(C)CCC[C@@H](C)[C@H]1CC[C@H]2[C@@H]3CC=C4C[C@@H](O)CC[C@]4(C)[C@H]3CC[C@]12C [cholesterol]
- increase in Aβ levels in rat cerebral cortex (Aβ levels in the brain): about 50%

Structure (SMILES): CC[C@H](C)C(=O)O[C@H]1C[C@@H](C)C=C2C=C[C@H](C)[C@H](CC[C@@H]3C[C@@H](O)CC(=O)O3)[C@H]21 [lovastatin]
- levels of Aβ relative to controls [1]: significantly decreased levels of Aβ
